Test results taken from PubChem BioAssay (NCI).
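Protocol summary: plate cells (96-well), add compound at 5 concentrations, incubate 48 h, interpolate endpoints linearly. The concentration for full growth arrest is given as TGI.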

Tests used:
Assay in all cases: growth of human tumour cells (NCI), 48 h
SF-539 CNS = system: SF-539 CNS
SNB-75 CNS = system: SNB-75 CNS
OVCAR-5 ovarian = system: OVCAR-5 ovarian
NCI-H226 lung = system: NCI-H226 lung
KM20L2 colon = system: KM20L2 colon
K-562 leukemia = system: K-562 leukemia
SW-620 colon = system: SW-620 colon
HT29 colon = system: HT29 colon
NCI-H522 lung = system: NCI-H522 lung
DMS 273 small cell lung = system: DMS 273 small cell lung
SNB-78 CNS = system: SNB-78 CNS
A498 renal = system: A498 renal
LXFL 529 NSCLC = system: LXFL 529 NSCLC
UACC-62 melanoma = system: UACC-62 melanoma
TK-10 renal = system: TK-10 renal
HCT-15 colon = system: HCT-15 colon
DLD-1 colon = system: DLD-1 colon
HL-60(TB) leukemia = system: HL-60(TB) leukemia
SF-295 CNS = system: SF-295 CNS
HCC-2998 colon = system: HCC-2998 colon
MOLT-4 leukemia = system: MOLT-4 leukemia
UACC-257 melanoma = system: UACC-257 melanoma
OVCAR-8 ovarian = system: OVCAR-8 ovarian
CCRF-CEM leukemia = system: CCRF-CEM leukemia
RPMI-8226 leukemia = system: RPMI-8226 leukemia
M14 melanoma = system: M14 melanoma
NCI-H460 lung = system: NCI-H460 lung
SF-268 CNS = system: SF-268 CNS
786-0 renal = system: 786-0 renal
XF 498 CNS = system: XF 498 CNS
HOP-92 NSCLC = system: HOP-92 NSCLC
NCI-H23 lung = system: NCI-H23 lung
COLO 205 colon = system: COLO 205 colon
EKVX NSCLC = system: EKVX NSCLC
A549 NSCLC = system: A549 NSCLC
HOP-18 NSCLC = system: HOP-18 NSCLC
SN12C renal = system: SN12C renal
SK-OV-3 ovarian = system: SK-OV-3 ovarian
M19-MEL melanoma = system: M19-MEL melanoma
OVCAR-3 ovarian = system: OVCAR-3 ovarian
OVCAR-4 ovarian = system: OVCAR-4 ovarian
LOX IMVI melanoma = system: LOX IMVI melanoma
SK-MEL-28 melanoma = system: SK-MEL-28 melanoma
CAKI-1 renal = system: CAKI-1 renal
MALME-3M melanoma = system: MALME-3M melanoma
SNB-19 CNS = system: SNB-19 CNS
ACHN renal = system: ACHN renal
SK-MEL-5 melanoma = system: SK-MEL-5 melanoma
DMS 114 small cell lung = system: DMS 114 small cell lung
KM12 colon = system: KM12 colon
U251 CNS = system: U251 CNS
HCT-116 colon = system: HCT-116 colon
UO-31 renal = system: UO-31 renal
RXF 393 renal = system: RXF 393 renal
IGROV1 ovarian = system: IGROV1 ovarian
SK-MEL-2 melanoma = system: SK-MEL-2 melanoma
HOP-62 NSCLC = system: HOP-62 NSCLC
SR leukemia = system: SR leukemia

Measured: TGI

NC(=S)/N=C/c1c(O)c2ccccc2oc1=O
87 µM: SNB-75 CNS
97.3 µM: SK-MEL-2 melanoma
86.4 µM: RXF 393 renal
77.9 µM: CAKI-1 renal
99.4 µM: MALME-3M melanoma
> 100 µM: SF-539 CNS | OVCAR-5 ovarian | NCI-H226 lung | KM20L2 colon | K-562 leukemia | SW-620 colon | HT29 colon | NCI-H522 lung | DMS 273 small cell lung | SNB-78 CNS | A498 renal | LXFL 529 NSCLC | UACC-62 melanoma | TK-10 renal | HCT-15 colon | DLD-1 colon | HL-60(TB) leukemia | SF-295 CNS | HCC-2998 colon | MOLT-4 leukemia | UACC-257 melanoma | OVCAR-8 ovarian | CCRF-CEM leukemia | RPMI-8226 leukemia | M14 melanoma | NCI-H460 lung | SF-268 CNS | 786-0 renal | XF 498 CNS | HOP-92 NSCLC | NCI-H23 lung | COLO 205 colon | EKVX NSCLC | A549 NSCLC | HOP-18 NSCLC | SN12C renal | SK-OV-3 ovarian | M19-MEL melanoma | OVCAR-3 ovarian | OVCAR-4 ovarian | LOX IMVI melanoma | SK-MEL-28 melanoma | SNB-19 CNS | ACHN renal | SK-MEL-5 melanoma | DMS 114 small cell lung | KM12 colon | U251 CNS | HCT-116 colon | UO-31 renal | IGROV1 ovarian

CC[C@@H]1C[C@@H]2CN3CCc4c([nH]c5ccc(OC)cc45)C(COC(=O)c4ccc(OC)c(OC)c4)(C2)C13
43.6 µM: U251 CNS
55 µM: SF-539 CNS
33.8 µM: NCI-H226 lung
61.4 µM: A498 renal
28 µM: UACC-62 melanoma
84.1 µM: NCI-H460 lung
95.7 µM: CCRF-CEM leukemia
71.8 µM: DMS 114 small cell lung
32.2 µM: HOP-92 NSCLC
39.3 µM: SN12C renal
74.5 µM: IGROV1 ovarian
37.8 µM: UACC-257 melanoma
38.8 µM: NCI-H23 lung
46.1 µM: XF 498 CNS
> 100 µM: SNB-75 CNS | OVCAR-5 ovarian | SNB-78 CNS | HCT-15 colon | OVCAR-8 ovarian | SF-268 CNS | 786-0 renal | COLO 205 colon | EKVX NSCLC | A549 NSCLC | HOP-18 NSCLC | M19-MEL melanoma | OVCAR-3 ovarian | OVCAR-4 ovarian | SK-MEL-28 melanoma | CAKI-1 renal | SNB-19 CNS | ACHN renal | KM12 colon
62.6 µM: RXF 393 renal
78.4 µM: SR leukemia
43 µM: K-562 leukemia
55.4 µM: HCC-2998 colon
44 µM: HCT-116 colon
41.8 µM: M14 melanoma
86.4 µM: RPMI-8226 leukemia
74.3 µM: KM20L2 colon
62.3 µM: MOLT-4 leukemia
40.1 µM: SW-620 colon
97.2 µM: TK-10 renal
35.1 µM: LXFL 529 NSCLC
27.6 µM: LOX IMVI melanoma
98.8 µM: UO-31 renal
70.6 µM: SF-295 CNS
93 µM: HOP-62 NSCLC
39.2 µM: HT29 colon | HL-60(TB) leukemia

O=C(O)c1ccc(S(=O)(=O)c2ccccc2)c([N+](=O)[O-])c1
> 100 µM: SF-539 CNS | SNB-75 CNS | OVCAR-5 ovarian | NCI-H226 lung | KM20L2 colon | K-562 leukemia | SW-620 colon | HT29 colon | NCI-H522 lung | DMS 273 small cell lung | SNB-78 CNS | A498 renal | LXFL 529 NSCLC | UACC-62 melanoma | TK-10 renal | HCT-15 colon | DLD-1 colon | HL-60(TB) leukemia | SF-295 CNS | HCC-2998 colon | MOLT-4 leukemia | UACC-257 melanoma | CCRF-CEM leukemia | RPMI-8226 leukemia | M14 melanoma | NCI-H460 lung | SF-268 CNS | 786-0 renal | HOP-92 NSCLC | NCI-H23 lung | COLO 205 colon | EKVX NSCLC | A549 NSCLC | HOP-18 NSCLC | SN12C renal | SK-OV-3 ovarian | M19-MEL melanoma | HOP-62 NSCLC | OVCAR-3 ovarian | OVCAR-4 ovarian | LOX IMVI melanoma | SR leukemia | SK-MEL-28 melanoma | CAKI-1 renal | MALME-3M melanoma | SNB-19 CNS | ACHN renal | SK-MEL-5 melanoma | DMS 114 small cell lung | KM12 colon | U251 CNS | HCT-116 colon | UO-31 renal | RXF 393 renal | IGROV1 ovarian | SK-MEL-2 melanoma

Cc1cc2c(cc1C)NC(=O)C(NC(=O)/C=C/c1ccccc1)C=N2 (stereo not drawn)
34.6 µM: COLO 205 colon
66 µM: NCI-H522 lung
58 µM: SR leukemia
19.6 µM: SW-620 colon
99.6 µM: XF 498 CNS
50.8 µM: HCT-116 colon
40.4 µM: HCT-15 colon
57.7 µM: MOLT-4 leukemia
75.9 µM: RPMI-8226 leukemia
> 100 µM: SF-539 CNS | SNB-75 CNS | OVCAR-5 ovarian | NCI-H226 lung | KM20L2 colon | DMS 273 small cell lung | SNB-78 CNS | A498 renal | LXFL 529 NSCLC | UACC-62 melanoma | TK-10 renal | DLD-1 colon | SF-295 CNS | HCC-2998 colon | OVCAR-8 ovarian | M14 melanoma | NCI-H460 lung | SF-268 CNS | 786-0 renal | EKVX NSCLC | A549 NSCLC | HOP-18 NSCLC | SN12C renal | SK-OV-3 ovarian | M19-MEL melanoma | HOP-62 NSCLC | OVCAR-4 ovarian | SK-MEL-28 melanoma | CAKI-1 renal | MALME-3M melanoma | SNB-19 CNS | ACHN renal | SK-MEL-5 melanoma | UO-31 renal | IGROV1 ovarian
55.3 µM: LOX IMVI melanoma
84.4 µM: SK-MEL-2 melanoma
26 µM: CCRF-CEM leukemia
82.9 µM: UACC-257 melanoma
59.7 µM: RXF 393 renal
31.1 µM: DMS 114 small cell lung
55.4 µM: KM12 colon
62.2 µM: K-562 leukemia
43.5 µM: HL-60(TB) leukemia
55.2 µM: OVCAR-3 ovarian
70.2 µM: U251 CNS
